Results: patent US20230114264A1, “ACTIVATION OF LYTIC GENES IN CANCER CELLS” (priority 2020, published 2023)

Key:
EBV lytic genes = assay: EBV lytic gene induction in DOX-induced C666-1 dCas9-Tet-on-PUFa-p65HSF1 gRNA cells; assay type: cell-based, Epstein-Barr virus (EBV)
Source text: SNU-719 and C666-1 cancer cells stably expressing HA-dCas9-EGFP and BZLF1 gRNA (A5) were modified to inducibly express 3×FLAG-PUFa-p65HSF1 using a Tetracycline response element (Tet-On). […] This reactivation of EBV slows the growth rate of cells by greater than 4 fold compared with cells treated with ganciclovir (GCV) alone, a current standard treatment for EBV infection (FIGS. 3B, 6A, 8H-8I). Further, treatment with BZLF1 gRNA (A5) decreases C666-1 cell viability by 50-70% relative to control (FIG. 6B).
Producing Tet-on PUFa-p65HSF1 cell line. SNU-719 or C666-1 cells stably expressing HA-dCas9-EGFP were seeded into a 60 mm culture dish at 70% density. The cells were transfected with 1 μg hyPBase (transposase) and 2 μg dox-inducible PUFa-p65HSF1 in a piggyBac vector plasmid through Lipofectamine 2000 reagent (Invitrogen). At 6 hours post-transfection, cell culture medium was exchanged. At 48 hours post-transfection, cells were selected with hygromycin antibiotics.
Producing Tet-on PUFa-p65HSF1 and BZLF1 gRNA (3) cell line. The day prior to transfection, HEK-293FT cells were seeded into a 10 cm culture dish at 70% density. […]. At 6 hours post-transfection, medium was exchanged for fresh. At 48 hours post-transfection, 5 mL of medium containing the lentivirus was collected and centrifuged for 10 minutes at 2,000 rpm to remove cellular debris. The supernatant was filtered through a 0.45-micron filter (Millipore), and the lentivirus was collected. SNU-719 dCas9-Tet-on-PUFa-p65HSF1 or C666-1 dCas9-Tet-on-PUFa-p65HSF1 cells were seeded into a 10 cm culture dish at 60% density per dish, transduced with 7 mL of the BZLF1 gRNA (A5) lentivirus in culture medium supplemented with 8 μg/mL polybrene for 48 hours, and subsequently selected with Puromycin antibiotics on the third day post-transduction.
RNA in-situ hybridization ISH (RNAscope®). Doxycycline (DOX) treated or untreated SNU-719 HA-dCas9-EGFP-Tet-on-PUFa-p65HSF1-BZLF1 gRNA (A5) cells or C666-1-HA-dCas9-Tet-on-PUFa-p65HSF1-BZLF1 gRNA (A5) cells were incubated for 48 hours. […]

BZLF1 = assay: EBV reactivation by BZLF1 gRNA transfection (Casilio) in SNU-719 cells stably expressing HA-dCas9-EGFP and 3×FLAG-PUFa-p65HSF1; assay type: cell-based, Epstein-Barr virus (EBV)
Procedure: SNU-719 and C666-1 cells stably expressing HA-dCas9-EGFP and 3×FLAG-PUFa-p65HSF1 were cultivated in RPMI-1640 (Sigma) with 10% fetal bovine serum (FBS) (Gibco) and 1% GlutaMAX (Gibco) and cultured in 37° C. incubator with 5% CO2. EBV reactivation experiments were conducted with cells seeded into 6-well plates at 2×10^6 cells per well the day before transfection. 2 micrograms (μg) of control gRNA or individual BZLF1 gRNA (A3) (SEQ ID NO: 8), gRNA (A4) (SEQ ID NO: 9), gRNA (A5) (SEQ ID NO: 10), or gRNA (A6) (SEQ ID NO: 11) gRNAs were transfected into cells with Lipofectamine 2000 (Invitrogen). After transfection, cells were grown for 48 hours and harvested for protein extraction or FACS (FIGS. 4, 5, 7A-7E).
FACS Analysis. Cells were harvested with trypsin and fixed for 15 minutes (mins) with 4% paraformaldehyde. The cells were then centrifuged at 2000×g for 5 mins and resuspended in 3% BSA for 30 mins. The resuspend cells were centrifuged again at 2000×g for 5 mins. […] Samples were analyzed on a FACSCalibur flow cytometer using CellQuest Pro software (BD Bioscience). […]
Quantitative RT-PCR Analysis. […] Power SYBR Green master mix was used for performing real-time quantitative PCR (RT-qPCR). […] The RT-qPCR samples were analyzed with a Roche LC480 PCR instrument. Gene expression levels were calculated by “delta Ct” algorithm and normalized to control samples.

BZLF1 gRNA (A5): BZLF1 gRNA spacer sequence SEQ ID NO: 10, GAAACTATGCATGAGCCAC (chemistry not given here)
expression of other EBV lytic genes including BRLF1 (Rta), BGLF4 (PK), BFRF3 (VCAp18), BMRF1, BdRF1 and BLLF1 (EBV lytic genes; 1 μg/mL DOX): induces the expression of other EBV lytic genes
BZLF1 (Zta) reactivation (EBV lytic genes; 1 μg/mL Doxycycline (DOX), Example 10): reactivated BZLF1 (Zta)
induction of the BZLF1, BGLF4, BMRF1, and BFRF3 (VCAp18) EBV lytic genes (EBV lytic genes; 3×FLAG-PUFa-p65HSF1 induced with 1 μg/mL Doxycycline): reactivated EBV
EBV reactivation, induction of BZLF1 (Zta) protein expression (BZLF1; 2 μg gRNA, 48 hours after transfection, protein extraction or FACS): reactivate EBV expression at detectable levels
BZLF1 (ZTa) protein expression by immunostaining (BZLF1; FIG. 7E): activated BZLF1 (ZTa) protein expression
